Target: TARP γ8 dependent AMPA receptor (GluA1o-g8 fusion channel) (Homo sapiens (Human), UniProt P42261+Q8WXS5)
Test: Calcium flux assay (FLIPR), HEK293 cells expressing GRIA1o-CACNG8 fusion
Format: cell-based
Details: inhibition of calcium flux after 15 μM glutamate, read-out: GluR1-γ8 pIC50 (converted)
Method in brief: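 Stable HEK293 clone expressing GluA1o-γ8 fusion (1:1 stoichiometry), loaded with Calcium-5/6 dye plus test compound; glutamate-evoked fluorescence normalized to control wells. Concentration-response fitted to four-parameter logistic, midpoint taken as inhibitory potency.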

Sequence of TARP γ8 dependent AMPA receptor (GluA1o-g8 fusion channel) (P42261 other isoform, or with tags, fused parts or gaps): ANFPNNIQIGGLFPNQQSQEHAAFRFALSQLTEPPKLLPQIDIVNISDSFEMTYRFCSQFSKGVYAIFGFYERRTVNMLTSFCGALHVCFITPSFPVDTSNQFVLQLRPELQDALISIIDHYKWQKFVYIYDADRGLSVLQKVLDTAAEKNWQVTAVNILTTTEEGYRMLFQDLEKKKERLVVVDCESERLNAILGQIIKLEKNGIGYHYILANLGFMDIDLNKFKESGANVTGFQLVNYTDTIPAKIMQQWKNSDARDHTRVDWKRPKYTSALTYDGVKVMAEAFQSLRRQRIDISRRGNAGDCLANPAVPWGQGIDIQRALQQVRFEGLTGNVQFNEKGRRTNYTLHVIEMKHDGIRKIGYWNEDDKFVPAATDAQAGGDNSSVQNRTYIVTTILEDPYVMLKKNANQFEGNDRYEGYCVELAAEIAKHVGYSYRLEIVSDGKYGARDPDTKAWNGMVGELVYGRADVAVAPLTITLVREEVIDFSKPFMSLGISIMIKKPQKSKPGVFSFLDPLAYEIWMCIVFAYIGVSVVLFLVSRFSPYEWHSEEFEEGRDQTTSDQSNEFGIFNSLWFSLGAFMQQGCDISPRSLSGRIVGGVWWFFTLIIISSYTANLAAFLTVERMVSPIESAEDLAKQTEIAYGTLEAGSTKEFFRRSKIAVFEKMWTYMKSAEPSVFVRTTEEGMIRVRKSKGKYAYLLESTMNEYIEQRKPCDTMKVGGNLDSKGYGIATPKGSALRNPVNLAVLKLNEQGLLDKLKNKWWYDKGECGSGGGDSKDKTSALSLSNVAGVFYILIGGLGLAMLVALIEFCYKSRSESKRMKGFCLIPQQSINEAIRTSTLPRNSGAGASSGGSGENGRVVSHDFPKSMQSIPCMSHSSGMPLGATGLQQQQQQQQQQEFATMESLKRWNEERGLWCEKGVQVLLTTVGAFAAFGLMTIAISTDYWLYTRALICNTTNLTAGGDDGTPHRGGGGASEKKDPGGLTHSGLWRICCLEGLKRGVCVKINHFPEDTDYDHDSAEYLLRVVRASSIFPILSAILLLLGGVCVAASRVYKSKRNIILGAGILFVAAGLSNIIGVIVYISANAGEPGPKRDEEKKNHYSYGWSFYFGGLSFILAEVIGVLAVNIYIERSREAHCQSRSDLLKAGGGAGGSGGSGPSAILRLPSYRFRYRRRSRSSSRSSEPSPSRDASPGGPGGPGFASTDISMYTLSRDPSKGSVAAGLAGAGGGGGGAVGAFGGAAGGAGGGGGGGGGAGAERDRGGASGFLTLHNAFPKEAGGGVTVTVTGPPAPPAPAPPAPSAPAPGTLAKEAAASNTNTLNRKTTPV

Structure (SMILES)	IC50
Cc1noc(-c2cccc(-c3ccc4[nH]c(=O)sc4c3)c2C)n1 [Example 204, 6-[2-Methyl-3-(3-methyl-1,2,4-oxadiazol-5-yl)phenyl]-3H-1,3-benzothiazol-2-one]	2510 nM
Cc1c(-c2ccc3[nH]c(=O)[nH]c3c2)cccc1-c1nc(C(F)(F)F)no1 [Example 205, 5-[2-Methyl-3-[3-(trifluoromethyl)-1,2,4-oxadiazol-5-yl]phenyl]-1,3-dihydrobenzimidazol-2-one]	39.8 nM
Cc1c(-c2ccc3[nH]c(=O)[nH]c3c2)cccc1-c1ncon1 [Example 206, 5-[2-Methyl-3-(1,2,4-oxadiazol-3-yl)phenyl]-1,3-dihydrobenzimidazol-2-one]	31.6 nM
Cc1c(-c2ccc3[nH]c(=O)sc3c2)cccc1-c1ncon1 [Example 207, 6-[2-Methyl-3-(1,2,4-oxadiazol-3-yl)phenyl]-3H-1,3-benzothiazol-2-one]	126 nM
N#Cc1ccc(OC(F)(F)F)c(-c2ccc3[nH]c(=O)[nH]c3c2)c1Cl [Example 208, 2-Chloro-3-(2-oxo-1,3-dihydrobenzimidazol-5-yl)-4-(trifluoromethoxy)benzonitrile]	15.8 nM
N#Cc1ccc(Cl)c(-c2ccc3[nH]c(=O)[nH]c3c2)c1OC(F)(F)F [Example 209, 4-Chloro-3-(2-oxo-1,3-dihydrobenzimidazol-5-yl)-2-(trifluoromethoxy)benzonitrile]	15.8 nM
O=c1[nH]c2cc(F)c(-c3c(Cl)cccc3OC(F)(F)F)cc2s1 [Example 210, 6-[2-Chloro-6-(trifluoromethoxy)phenyl]-5-fluoro-3H-1,3-benzothiazol-2-one]	63.1 nM
Cc1cc(-c2c(Cl)cccc2OC(F)(F)F)cc2[nH]c(=O)[nH]c12 [Example 211, 6-(2-Chloro-6-(trifluoromethoxy)phenyl)-4-methyl-1H-benzo[d]imidazol-2(3H)-one]	0.1 nM
Cn1cc(-c2cccc(-c3ccc4[nH]c(=O)sc4c3)c2Cl)cn1 [Example 212, 6-(2-Chloro-3-(1-methyl-1H-pyrazol-4-yl)phenyl)benzo[d]thiazol-2(3H)-one]	200 nM
COC1CCN(c2cccc(-c3ccc4[nH]c(=O)sc4c3)c2Cl)CC1 [Example 213, 6-(2-Chloro-3-(4-methoxypiperidin-1-yl)phenyl)benzo[d]thiazol-2(3H)-one]	2510 nM
O=c1[nH]c2cc(-c3c(Cl)cccc3OC(F)(F)F)cc(F)c2[nH]1 [Example 214, 6-(2-chloro-6-(trifluoromethoxy)phenyl)-4-fluoro-1,3-dihydro-2H-benzo[d]imidazol-2-one]	2.51 nM
